# Assay results from patent US11786534B2 (TAIHO PHARMACEUTICAL CO., LTD., priority 2019, dated 2023).
# Key:
# [1] = molecular target: T1, human EGFR (d746-750/C797S) (Homo sapiens, UniProt P00533, C797S/DEL746-750); experiment: Inhibitory activity against EGFR (d746-750/C797S) kinase; type: biochemical
# T1 construct: purchased SignalChem
# Method in brief: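 Recombinant human EGFR d746-750/C797S in 13.5 mM Tris pH 7.5 with 2 mM DTT and 0.009% Tween-20. Reaction ran 60 min with 14 μM ATP, 20 mM MgCl2 and 12.5 mM MnCl2, stopped by 40 mM EDTA. IC50 in nM.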
# [2] = molecular target: T2, human EGFR (d746-750/T790M/C797S) (Homo sapiens, UniProt P00533, C797S/DEL746-750/T790M); experiment: Inhibitory activity against EGFR (d746-750/T790M/C797S) kinase; type: biochemical
# T2 construct: made in house; host or cells: Sf9 insect cells, baculovirus
# T2 sequence (P00533 with tags, fused parts or gaps DEL746-750/T790M/C797S): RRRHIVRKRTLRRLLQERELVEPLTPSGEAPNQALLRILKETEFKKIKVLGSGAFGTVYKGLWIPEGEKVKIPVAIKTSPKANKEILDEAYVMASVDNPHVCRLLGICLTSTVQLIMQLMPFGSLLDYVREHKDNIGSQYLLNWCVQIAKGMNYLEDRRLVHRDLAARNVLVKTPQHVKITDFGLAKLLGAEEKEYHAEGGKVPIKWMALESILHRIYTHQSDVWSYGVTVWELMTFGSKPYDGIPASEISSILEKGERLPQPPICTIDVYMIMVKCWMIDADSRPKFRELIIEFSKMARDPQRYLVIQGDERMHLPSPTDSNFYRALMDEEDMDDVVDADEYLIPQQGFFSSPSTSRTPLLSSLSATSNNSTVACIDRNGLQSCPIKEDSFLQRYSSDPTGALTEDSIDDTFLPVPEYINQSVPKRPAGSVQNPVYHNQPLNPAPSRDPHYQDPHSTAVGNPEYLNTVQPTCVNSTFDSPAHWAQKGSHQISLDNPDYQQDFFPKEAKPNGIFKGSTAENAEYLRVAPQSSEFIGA
# Method in brief: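 GST-fused cytoplasmic domain of human EGFR d746-750/T790M/C797S (Sf9-expressed) was incubated with 250 nM biotinylated peptide, 6 μM ATP, 10 mM MgCl2 and 10 mM MnCl2 (2.5% DMSO) for 120 min at 25 °C. After an EDTA stop, phosphotyrosine was detected by Eu-PT66/SureLight APC-SA TR-FRET (665/620 nm, excitation 337 nm). Background wells received EDTA before enzyme.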
# [3] = Test Example 1, Table 4, ATP 14 μM, 60 minutes
# [4] = Test Example 1, Table 2, ATP 6 μM, 25° C., 120 minutes
# T1 sequence (P00533 with tags, fused parts or gaps DEL746-750/C797S): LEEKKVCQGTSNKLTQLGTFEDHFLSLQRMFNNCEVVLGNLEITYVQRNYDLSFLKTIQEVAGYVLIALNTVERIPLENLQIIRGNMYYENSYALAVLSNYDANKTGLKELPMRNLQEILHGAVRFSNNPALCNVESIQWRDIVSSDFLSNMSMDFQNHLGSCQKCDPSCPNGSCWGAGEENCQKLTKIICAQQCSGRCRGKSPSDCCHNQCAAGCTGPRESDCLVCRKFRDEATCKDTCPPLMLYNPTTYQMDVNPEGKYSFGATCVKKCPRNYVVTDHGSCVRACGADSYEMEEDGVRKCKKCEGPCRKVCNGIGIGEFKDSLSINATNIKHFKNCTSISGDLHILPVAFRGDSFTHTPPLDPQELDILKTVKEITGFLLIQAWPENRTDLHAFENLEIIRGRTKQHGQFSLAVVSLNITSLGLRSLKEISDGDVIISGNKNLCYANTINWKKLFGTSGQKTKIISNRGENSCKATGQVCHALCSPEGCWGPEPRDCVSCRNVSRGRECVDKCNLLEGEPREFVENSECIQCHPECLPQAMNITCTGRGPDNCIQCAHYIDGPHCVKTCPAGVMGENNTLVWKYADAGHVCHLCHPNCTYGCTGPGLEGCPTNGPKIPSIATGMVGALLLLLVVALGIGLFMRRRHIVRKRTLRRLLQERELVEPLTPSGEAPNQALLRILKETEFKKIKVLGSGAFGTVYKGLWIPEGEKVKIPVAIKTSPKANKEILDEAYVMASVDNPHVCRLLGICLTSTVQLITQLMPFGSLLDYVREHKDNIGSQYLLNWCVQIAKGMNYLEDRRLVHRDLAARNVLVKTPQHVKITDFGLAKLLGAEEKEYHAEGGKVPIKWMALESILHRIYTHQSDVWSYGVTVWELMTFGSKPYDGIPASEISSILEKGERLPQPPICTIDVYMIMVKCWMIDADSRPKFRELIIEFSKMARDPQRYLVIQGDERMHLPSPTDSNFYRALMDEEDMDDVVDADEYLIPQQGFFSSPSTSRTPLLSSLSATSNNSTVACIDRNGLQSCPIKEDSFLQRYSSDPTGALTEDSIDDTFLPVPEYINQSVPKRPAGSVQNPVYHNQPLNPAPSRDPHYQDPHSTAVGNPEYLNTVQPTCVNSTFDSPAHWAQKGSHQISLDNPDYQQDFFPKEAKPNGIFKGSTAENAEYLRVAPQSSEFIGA
SMILES,"IC50 [1, 3]","IC50 [2, 4]","IC50 ([1]; Test Example 3, Table 10; same procedures as 3) in Test Example 1)","IC50 ([2]; Test Example 3, Table 8; same procedures as 1) in Test Example 1)"
"C=CC(=O)N1CC[C@@H](n2cc(-c3cnc4ccccc4c3)c3c(N)ncnc32)C1 [Comparative Example A, (R)-1-(3(4-Amino-5-(quinolin-3-yl)-7H-pyrrolo[2,3-d]pyrimidin-7-yl)pyrrolidin-1-yl) -prop-2-en-1-one, reference compound]",264 nM,142 nM,,
"C#Cc1c(-c2cnc3ccccc3c2)c2c(N)ncnc2n1[C@@H]1CCN(C(=O)C=C)C1 [Comparative Example B, (R)-1-(3-(4-Amino-6-ethynyl-5-(quinolin-3-yl)-7H-pyrrolo[2,3-d]pyrimidin-7-yl) -pyrrolidin-1-yl)-prop-2-en-1-one, reference compound]",93 nM,26 nM,,
"C#Cc1c(-c2cnc3ccccc3c2)c2c(N)ncnc2n1C12CCC(NC(=O)c3ccccc3)(CC1)C2 [Example 1, N-(4-(4-Amino-6-ethynyl-5-(quinolin-3-yl)-7H-pyrrolo[2,3-d]pyrimidin-7-yl)bicyclo-[2.2.1]heptan-1-yl)benzamide]",1.8 nM,< 0.3 nM,,
"C#Cc1c(-c2cnc3ccccc3c2)c2c(N)ncnc2n1C12CCC(NC(=O)c3cncnc3)(CC1)C2 [Example 2, N-(4-(4-Amino-6-ethynyl-5-(quinolin-3-yl)-7H-pyrrolo[2,3-d]pyrimidin-7-yl)bicyclo-[2.2.1]heptan-1-yl)pyrimidine-5-carboxamide]",,< 0.3 nM,,
"C#Cc1c(-c2cnc3ccccc3c2)c2c(N)ncnc2n1C12CCC(NC(=O)c3ccnnc3)(CC1)C2 [Example 3, N-(4-(4-Amino-6-ethynyl-5-(quinolin-3-yl)-7H-pyrrolo[2,3-d]pyrimidin-7-yl)bicyclo-[2.2.1]heptan-1-yl)pyridazine-4-carboxamide]",< 0.3 nM,< 0.3 nM,,
"C#Cc1c(-c2cnc3ccccc3c2)c2c(N)ncnc2n1C12CCC(N3CCOCC3)(CC1)C2 [Example 9, 6-Ethynyl-7-(4-morpholinobicyclo[2.2.1]heptan-1-yl)-5-(quinolin-3-yl)-7H-pyrrolo[2,3-d]pyrimidine-4-amine]",0.36 nM,< 0.3 nM,,
"C#Cc1c(-c2cnc3ccccc3c2)c2c(N)ncnc2n1C12CCC(CNC(=O)c3ccnn3C)(CC1)C2 [Example 13, N-((4-(4-Amino-6-ethynyl-5-(quinolin-3-yl)-7H-pyrrolo[2,3-d]pyrimidin-7-yl)bicyclo-[2.2.1]heptan-1-yl)methyl)-1-methyl-1H-pyrazole-5-carboxamide]",0.67 nM,< 0.3 nM,,
"C#Cc1c(-c2cnc3ccccc3c2)c2c(N)ncnc2n1C12CCC(CNC(=O)c3cnc(C)cn3)(CC1)C2 [Example 14, N-((4-(4-Amino-6-ethynyl-5-(quinolin-3-yl)-7H-pyrrolo[2,3-d]pyrimidin-7-yl)bicyclo-[2.2.1]heptan-1-yl)methyl)-5-methylpyrazine-2-carboxamide]",0.79 nM,< 0.3 nM,,
"C#Cc1c(-c2cnc3ccccc3c2)c2c(N)ncnc2n1C12CCC(NC(=O)c3ccc4ncnn4c3)(CC1)C2 [Example 16, N-(4-(4-Amino-6-ethynyl-5-(quinolin-3-yl)-7H-pyrrolo[2,3-d]pyrimidin-7-yl)bicyclo-[2.2.1]heptan-1-yl)-[1.2.4]triazolo[1,5-a]pyrimidin-6-carboxamide]",0.45 nM,< 0.3 nM,,
"C#Cc1c(-c2cnc3ccccc3c2)c2c(N)ncnc2n1C12CCC(NC(=O)c3cnns3)(CC1)C2 [Example 18, N-(4-(4-Amino-6-ethynyl-5-(quinolin-3-yl)-7H-pyrrolo[2,3-d]pyrimidin-7-yl)bicyclo-[2.2.1]heptan-1-yl)-1,2,3-thiadiazole-5-carboxamide]",0.78 nM,< 0.3 nM,,
"C#Cc1c(-c2cnc3ccccc3c2)c2c(N)ncnc2n1C12CCC(NC(=O)c3ccnn3C3CC3)(CC1)C2 [Example 20, N-(4-(4-Amino-6-ethynyl-5-(quinolin-3-yl)-7H-pyrrolo[2,3-d]pyrimidin-7-yl)bicyclo-[2.2.1]heptan-1-yl)-1-cyclopropyl-1H-pyrazole-5-carboxamide]",0.68 nM,< 0.3 nM,,
"C#Cc1c(-c2cnc3ccccc3c2)c2c(N)ncnc2n1C12CCC(NC(=O)c3nccn3C)(CC1)C2 [Example 23, N-(4-(4-Amino-6-ethynyl-5-(quinolin-3-yl)-7H-pyrrolo[2,3-d]pyrimidin-7-yl)bicyclo-[2.2.1]heptan-1-yl)-1-methyl-1H-imidazole-2-carboxamide]",0.7 nM,< 0.3 nM,,
"C#Cc1c(-c2cnc3ccccc3c2)c2c(N)ncnc2n1C12CCC(NC(=O)c3ccnn3C)(CC1)C2 [Example 24, N-(4-(4-Amino-6-ethynyl-5-(quinolin-3-yl)-7H-pyrrolo[2,3-d]pyrimidin-7-yl)bicyclo-[2.2.1]heptan-1-yl)-1-methyl-1H-pyrazole-5-carboxamide]",0.5 nM,< 0.3 nM,,
"C#Cc1c(-c2cnc3ccccc3c2)c2c(N)ncnc2n1C12CCC(NC(=O)C(F)F)(CC1)C2 [Example 27, N-(4-(4-Amino-6-ethynyl-5-(quinolin-3-yl)-7H-pyrrolo[2,3-d]pyrimidin-7-yl)bicyclo-[2.2.1]heptan-1-yl)-2,2-difluoroacetamide]",1.2 nM,< 0.3 nM,,
"C#Cc1c(-c2cnc3ccccc3c2)c2c(N)ncnc2n1C12CCC(NC(=O)c3cncc(F)c3)(CC1)C2 [Example 35, N-(4-(4-Amino-6-ethynyl-5-(quinolin-3-yl)-7H-pyrrolo[2,3-d]pyrimidin-7-yl)-bicyclo-[2.2.1]heptan-1-yl)-5-fluoronicotinamide]",0.55 nM,< 0.3 nM,,
"C#Cc1c(-c2cnc3ccccc3c2)c2c(N)ncnc2n1C12CCC(NC(=O)c3noc(C)n3)(CC1)C2 [Example 36, N-(4-(4-Amino-6-ethynyl-5-(quinolin-3-yl)-7H-pyrrolo[2,3-d]pyrimidin-7-yl)-bicyclo-[2.2.1]heptan-1-yl)-5-methyl-1,2,4-oxadiazole-3-carboxamide]",0.61 nM,< 0.3 nM,,
"C#Cc1c(-c2cnc3ccccc3c2)c2c(N)ncnc2n1C12CCC(NC(=O)c3cnc(C)cn3)(CC1)C2 [Example 37, N-(4-(4-Amino-6-ethynyl-5-(quinolin-3-yl)-7H-pyrrolo[2,3-d]pyrimidin-7-yl)-bicyclo-[2.2.1]heptan-1-yl)-5-methylpyrazine-2-carboxamide]",0.5 nM,< 0.3 nM,,
"C#Cc1c(-c2cnc3ccccc3c2)c2c(N)ncnc2n1C12CCC(NC(C)=O)(CC1)C2 [Example 39, N-(4-(4-Amino-6-ethynyl-5-(quinolin-3-yl)-7H-pyrrolo[2,3-d]pyrimidin-7-yl)-bicyclo-[2.2.1]heptan-1-yl)acetamide]",0.75 nM,< 0.3 nM,,
C#Cc1c(-c2cnc3ccccc3c2)c2c(N)ncnc2n1C12CCC(NC(=O)c3ccco3)(CC1)C2 [Example 41],1.4 nM,< 0.3 nM,,
C#Cc1c(-c2cnc3ccccc3c2)c2c(N)ncnc2n1C12CCC(NC(=O)c3ccncc3)(CC1)C2 [Example 43],0.73 nM,< 0.3 nM,,
C#Cc1c(-c2cnc3ccccc3c2)c2c(N)ncnc2n1C12CCC(NC(=O)c3ccno3)(CC1)C2 [Example 44],0.73 nM,< 0.3 nM,,
C#Cc1c(-c2cnc3ccccc3c2)c2c(N)ncnc2n1C12CCC(NC(=O)c3cccnc3)(CC1)C2 [Example 45],0.67 nM,< 0.3 nM,,
C#Cc1c(-c2cnc3ccccc3c2)c2c(N)ncnc2n1C12CCC(NC(=O)c3ncco3)(CC1)C2 [Example 46],0.43 nM,< 0.3 nM,,
C#Cc1c(-c2cnc3ccccc3c2)c2c(N)ncnc2n1C12CCC(NC(=O)c3cnccn3)(CC1)C2 [Example 48],0.46 nM,< 0.3 nM,,
C#Cc1c(-c2cnc3ccccc3c2)c2c(N)ncnc2n1C12CCC(NC(=O)c3cccnn3)(CC1)C2 [Example 49],0.49 nM,< 0.3 nM,,
C#Cc1c(-c2cnc3ccccc3c2)c2c(N)ncnc2n1C12CCC(NC(=O)c3nccs3)(CC1)C2 [Example 53],0.88 nM,< 0.3 nM,,
"C#Cc1c(-c2cnc3ccccc3c2)c2c(N)ncnc2n1C12CCC(NC(=O)[C@@H]3CN(C)CCO3)(CC1)C2 [Example 63, (S)-N-(4-(4-Amino-6-ethynyl-5-(quinolin-3-yl)-7H-pyrrolo[2,3-d]pyrimidin-7-yl) -bicyclo[2.2.1]heptan-1-yl)-4-methylmorpholine-2-carboxamide]",,,0.51 nM,< 0.3 nM
